# Source: paper PMC6825270 (Proceedings of the National Academy of Sciences of the …, 2019)
# Legend:
# human MOPr (hMOPr) = human MOPr (hMOPr) (Homo sapiens, UniProt P35372); assay: Inhibition of forskolin-stimulated cAMP formation in hMOPr HEK cells; format: cell-based; conditions: 10 µM
# [1] = biological target: human μ-opioid receptor (hMOPr) (human) (UniProt P35372); assay: radioligand binding
# [2] = biological target: human κ-opioid receptor (hKOPr) (human) (UniProt P41145); assay: radioligand binding
# [3] = biological target: human δ-opioid receptor (hDOPr) (human) (UniProt P41143); assay: radioligand binding
# mouse MOPr (mMOPr) = mouse MOPr (mMOPr) (Mus musculus, UniProt P42866); assay: GGIRK activation in AtT20 cells expressing mMOPr, perforated patch; format: cell-based
# MOPr = MOPr (Mus musculus, UniProt P42866); format: cell-based; conditions: GRK2-positive cells, saturating concentrations
# Chain of human MOPr (hMOPr) (P35372 whole entry): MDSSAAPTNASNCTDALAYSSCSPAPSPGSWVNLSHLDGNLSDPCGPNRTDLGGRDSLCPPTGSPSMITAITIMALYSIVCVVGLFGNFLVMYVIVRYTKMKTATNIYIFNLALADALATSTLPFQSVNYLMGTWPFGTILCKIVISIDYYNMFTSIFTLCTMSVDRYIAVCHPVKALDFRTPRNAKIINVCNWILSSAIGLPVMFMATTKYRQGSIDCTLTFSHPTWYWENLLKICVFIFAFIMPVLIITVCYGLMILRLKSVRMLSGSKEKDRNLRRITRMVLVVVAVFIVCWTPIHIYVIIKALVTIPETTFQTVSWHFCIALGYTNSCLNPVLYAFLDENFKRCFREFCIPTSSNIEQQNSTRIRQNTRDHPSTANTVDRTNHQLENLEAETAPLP
Molecule,"Inhibition of cAMP formation / MOPr activity, in words (human MOPr (hMOPr))",Ki [1] [nM],also measured
H-FVvf-OH [1c],generally inactive,,
H-fVvF-NH2 [1f],generally inactive,,
H-fVvF-OH [1b],generally inactive,,
bilaid C (YvVf-OH) (peptide),,210,
bilorphin ([Dmt]vVf-NH2) (peptide),,,Ki [2]: 770 nM; Ki [3]: 190 nM
bilaid A (FvVf-OH) (peptide),,3100,
H-FVvf-NH2 [1g],generally inactive,,
COc1ccsc1CNCC[C@@]1(c2ccccn2)CCOC2(CCCC2)C1 [oliceridine],,,"GGIRK activation in AtT20 cells, in words (mouse MOPr (mMOPr)): significantly less efficaciously than either morphine or bilorphin; MOPr internalization with overexpressed GRK2-YFP and β-arrestin 2-HA, in words (MOPr): clear internalization signals"
H-fvVF-OH [1d],generally inactive,,
"FVVF (D-Val at 2, D-Phe at 4; C-terminal amide) [C-terminally amidated bilaid A (1e)]",,750,
